In patent EP1024807B1, “USE OF THE COMPOUND 2-METHOXYPHENYL-1-METHYL-5P-METHYLBENZOYL-PYRROL-2-ACETAMIDO ACETATE FOR THE PRODUCTION OF AN ANTI-INFLAMMATORY DRUG WITH PREVENTION OF GASTRIC HYPERSECRETION AND RENAL IMPAIRMENT” (MEDOSAN Ricerca S.r.l., priority 1997, dated 1999):
Entries after “also recorded” stand apart in the source; their conditions may differ.

Experiments:
gastric PGE2 = assay: Effect on gastric PGE2 in the rat; type: in vivo
Description: Moreover, as with all the NSAIDs currently aveilable, it inhibits gastric PGE2 in the rat, albeit to a lesser degree than ASA (Table 7).

Rats = assay: Carrageenan pleurisy, exudate volume at 4 hours; type: in vivo; settings: for Exudate volume: 4 hour; for decrease exudate volume: compared to gum tragacanth control
Description: Compounds were administered orally 1 hour prior to and 1 hour post pleurisy induction in a volume of 0.5 ml 1% gum tragacanth. Indomethacin was used at 3 mg/kg. MED 15 was used at 25, 50 and 100 mg/kg.
A 1% solution of carrageenan in sterile saline was prepared. The solution was placed in an incubator at 37°C for half an hour to allow complete hydration of the carrageenan. The solution was then mixed to homogeneity.
A 21Gx40mm syringe needle was reduced in length to 5mm and fitted to a 1ml syringe containing the irritant. Rats were lightly anaesthetised with halothane. Each animal was placed on its left side. The skin over the thorax was lifted with and a 1cm incision made through the skin with a pair of scissors. The wound was opened to expose the underlying muscle. Using a scalpel, a 2-3mm incision was made into the muscle of the 5th-6th intercostal space. A volume of 0.15ml of carrageenan solution was then injected into the pleural cavity. The wound was closed with a 11mm Michel clip and the animal allowed to recover from the anaesthetic. Groups of animals were killed 4 hours after pleurisy induction.
Lavage solution: One part of 3.15% trisodium citrate solution, mixed with nine parts of Hank's balanced salt solution.
Rats were killed by over exposure to carbon dioxide. For each rat the skin over the thorax was moistened with IMS alcohol. The skin over the sternum was then lifted and a 5cm cut made, to expose the musculature of the upper abdomen and thoracic cavity. The muscle overlying the xiphisternum was lifted with tissue forceps and a 1cm cut made through the muscle to reveal the cartilage. This was then lifted and the diaphragm perforated just beneath the cartilage. Two cuts were then made through the rib cage either side of the cartilage to form a flap which could be folded back to expose the thoracic cavity.
Using a syringe, 1ml of lavage fluid was introduced into the thoracic cavity. The fluid was aspirated 2-3 times with a 3ml pastette to wash the cavity, before being collected into separate 10ml conical-based plastic test-tubes. Any blood contaminated fluids were rejected.
The mass of each tube with fluid was determined. By subtracting the mass of an empty tube from these values, and assuming a density for the fluid of 1g/cm^3, the fluid volume was quantified.
Results were analysed by ANOVA followed by Bonferroni T-test. Values of p<0.05 were considered significant.
Dosing was one hour prior to and one hour post pleurisy induction and inflammation was assessed at 4 hours.

Anaesthetized Rat = assay: Drug safety trials: blood pressure and cardiovascular system; settings: in vivo
Description: From a toxicological viewpoint the drug offers an excellent torability profile.

rat = assay: Chronic oral administration for 52 weeks, gastric damage; type: in vivo
Cynomolgous monkey = assay: as above; type: in vivo
rabbit = assay: Fertility, embryotoxicity and teratogenicity studies; type: in vivo
[1] = system: human lymphocites cultivated in vitro; assay: Chromosome aberrations in lymphocytes in vitro; type: cell-based
[2] = system: gastric bicarbonate secretion; assay: Gastric bicarbonate secretion after stimulation with histamine; type: in vivo, rat; settings: fig. 6
[3] = system: guinea-pig isolated ileum; assay: Intestinal motility in isolated ileum with various agonists; settings: all of the traditional agonists (histamine, acetylcholine, serotonin)
Description: In parallel we also studied the possible effect on intestinal motility in the guinea-pig isolated ileum (b.r. No. 29) using various agonists (fig. 7, 8 and 9).

[4] = system: rat isolated stomach strips; assay: Gastric motility in isolated stomach strips, acetylcholine and serotonin as agonists; settings: acetilcholine and serotonin as agonists
[5] = Persistence of intact molecule in gastric and intestinal walls; type: in vivo; settings: after oral administration in the rat
Description: The presence of the vanilloid radical, essential to the expression of the gastroprotective mechanism, is guaranteed by the prolonged persistence of high amounts of intact amtolmetin guacyl molecule in the gastric and intestinal walls (at least 2 hours after oral administration in the rat).

[6] = system: patients with rheumatoid arthritis in the active phase; assay: Clinical trials in rheumatoid arthritis; type: in vivo, man; settings: 150 patients, 30 days; versus ibuprofen, indomethacin, piroxicam, tolmetin; listed as Amtolmetin guacyl
Description: Amtolmetin guacyl was compared with ibuprofen, indomethacin, piroxicam and tolmetin.

osteoarthritis = assay: Clinical trials in osteoarthritis; type: in vivo, man; settings: 550 patients, mean 80 days; versus seven reference NSAIDs; listed as Amtolmetin guacyl
Description: In this degenerative disease amtolmetin guacyl was compared with diclofenac, diflunisal, flurbiprofen, ibuprofen, ketoprofen, naproxen and tolmetin.

[7] = system: extra-articular rheumatism; assay: Clinical trials in extra-articular rheumatism; type: in vivo, man; settings: 90 patients, 14 days; versus diclofenac, naproxen, piperazine propionate
Description: In extra-articular rheumatism amtolmetin guacyl was compared with diclofenac, naproxen and piperazine propionate.

post-operative pain = assay: Clinical trials in post-operative pain; type: in vivo, man
Description: As reported in Table 14, the analgesic properties of amtolmetin guacyl were tested in postoperative pain with good results. […] The peak effect is obtained only after 2 hours, and it is maintained for 6 hours.

COX1 (cyclooxygenase 1) = target: T1, COX1 (cyclooxygenase 1) (Rattus norvegicus, UniProt Q63921); assay: Pharmacological studies in rats: cyclooxygenase inhibition; settings: in vivo
T1 construct: the pharmacological studies conducted in rats; from tissue; host or cells: rat (in vivo; tissue not given)
T1 sequence (Q63921 27-602): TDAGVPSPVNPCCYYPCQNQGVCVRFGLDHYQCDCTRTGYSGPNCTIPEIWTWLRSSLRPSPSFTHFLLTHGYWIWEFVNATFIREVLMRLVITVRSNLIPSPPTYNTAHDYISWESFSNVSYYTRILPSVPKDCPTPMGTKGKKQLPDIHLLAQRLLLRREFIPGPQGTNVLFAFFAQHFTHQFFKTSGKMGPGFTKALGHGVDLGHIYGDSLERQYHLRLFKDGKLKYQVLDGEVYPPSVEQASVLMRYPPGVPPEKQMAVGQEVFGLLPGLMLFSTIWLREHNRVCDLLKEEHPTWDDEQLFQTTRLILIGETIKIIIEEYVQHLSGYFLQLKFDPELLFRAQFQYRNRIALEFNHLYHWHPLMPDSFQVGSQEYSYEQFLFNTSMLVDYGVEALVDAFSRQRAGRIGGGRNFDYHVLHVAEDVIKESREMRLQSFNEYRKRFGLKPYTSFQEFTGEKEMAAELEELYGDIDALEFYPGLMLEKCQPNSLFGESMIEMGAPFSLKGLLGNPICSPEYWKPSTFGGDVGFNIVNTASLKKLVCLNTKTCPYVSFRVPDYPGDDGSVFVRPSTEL

platelet aggregation = assay: Platelet aggregation
Description: For all of these reasons the drug was expected to induce gastric damage and inhibit platelet aggregation.

## COc1ccccc1OC(=O)CNC(=O)Cc1ccc(C(=O)c2ccc(C)cc2)n1C [MED 15, 2-methoxyphenyl-1-methyl-5p-methylbenzoylpyrrol-2-acetamido acetate]
Gastric PGE2; gastric PGE2 versus controls
  %inhibition: 69.9%
Gastric PGE2; gastric tissue, rat, controls 108.7±23.9
  PGE2 (ngtg^Δ tissue)±S.E.: 32.7±8.5 nanograms for gram of tissue
Rats; 25mg/kg orally 1 hour prior to and 1 hour post induction
  Exudate volume: 0.84 ± 0.09 mL
Rats; 25mg/kg
  decrease exudate volume: 11%
Rats; 50mg/kg orally 1 hour prior to and 1 hour post induction
  Exudate volume: 0.74 ± 0.06 mL
Rats; 50mg/kg
  decrease exudate volume: 21%
Rats; 100mg/kg orally 1 hour prior to and 1 hour post induction
  Exudate volume: 0.53 ± 0.05 mL
Rats; 100mg/kg
  decrease exudate volume: 44%
Anaesthetized Rat
  effects on blood pressure and on the cardiovascular system: absence of effects
rat
  gastric damage: absence of gastric damage
Cynomolgous monkey
  gastric damage: absence of gastric damage
rabbit
  fertility, embriotoxicity and teratogenicity: safety
[1]
  chromosomic aberrations: absence of amtolmetin guacyl-related damage
[2]
  increase in bicarbonate production: 67%
[3]
  motility: decrease in motility
[4]
  motility: down-regulation of motility
[5]
  persistence of high amounts of intact molecule in the gastric and intestinal walls: at least 2 hours
[6]
  Evaluation of antiphlogistic activity: significantly more rapid and marked anti-inflammatory activity compared to the reference NSAIDs; also recorded: Amtolmetin guacyl demonstrated statistical significant activity more rapid and more marked when compared to the reference NSAIDs in rheumatoid arthritis
osteoarthritis
  Evaluation of antiphlogistic activity: statistically significant more rapid and more marked activity; also recorded: Amtolmetin guacyl was more rapid and more active in a statistically significant manner in osteoarthritis compared to the reference NSAIDs
[7]
  Evaluation of antiphlogistic activity: In this indication no significant differences were noted between amtolmetin guacyl and the reference compounds.
post-operative pain; following administration
  time at which the effect is already evaluable: 30 '
post-operative pain; post-operative pain
  antalgic effect: statistically significant
  time the effect is maintained: 6 h
  time to peak effect: 2 h
COX1 (cyclooxygenase 1)
  inhibition of COX1: inhibition
Platelet aggregation
  platelet antiaggregating properties: significant platelet antiaggregating properties
